Measured values as given in the OligoGym collection.
Values joined by “and” are separate entries in the source; they are usually repeats but may differ in a detail not shown here. Identical values can stand only once. After the bases stand the sugars from the 5' end (letter, count) and the backbone: PS all phosphorothioate, else s phosphorothioate and o phosphodiester by linkage. Methylation of C is not given here. k = constrained ethyl (cEt); d = 2'-deoxy (DNA)

Molecular target: MALAT1
Conditions: ASO, A431, 0.005 µM

Row | Sequence | target mRNA inhibition
1 | TAGGGCTTCTCAAAAC (sugars k3 d10 k3, PS) | 4%
2 | GCTGAGTGTTCCTGCA (sugars k3 d10 k3, PS) | 22%
3 | GTCAATAGTGTAAAAC (sugars k3 d10 k3, PS) | 33%
4 | AAGAGTAACTACCAGC (sugars k3 d10 k3, PS) | 6%
5 | AGGTATGACATATAAT (sugars k3 d10 k3, PS) | 35%
6 | AGAACTAGTGGTTCCC (sugars k3 d10 k3, PS) | -3%
7 | TCTTCTAAATTGGTTC (sugars k3 d10 k3, PS) | 49%
8 | CTCGCATCACCGGAAT (sugars k3 d10 k3, PS) | -14%
9 | AAACCGATTATGGATC (sugars k3 d10 k3, PS) | 3%
10 | GTCCTTTTAGTAGCTT (sugars k3 d10 k3, PS) | 50% and 72%
11 | TCTGAAGAATACCATC (sugars k3 d10 k3, PS) | 15%
12 | AAGCCAAGCCGCCTGC (sugars k3 d10 k3, PS) | 29%
13 | TTACAGTTCTTGAACA (sugars k3 d10 k3, PS) | 25%
14 | TGTTTAAGTCACCTTC (sugars k3 d10 k3, PS) | 74% and 63%
15 | ATCTGTTAACAGCTGC (sugars k3 d10 k3, PS) | 71% and 76%
16 | CCCCCCCAAGATTGCC (sugars k3 d10 k3, PS) | -16%
17 | AGGCAAATCGCCATGG (sugars k3 d10 k3, PS) | 5%
18 | AGTGTACTATCCCATC (sugars k3 d10 k3, PS) | 78% and 91%
19 | CTTGGGAAATCTTAGA (sugars k3 d10 k3, PS) | -11%
20 | CTGAACCGGAGCAGGA (sugars k3 d10 k3, PS) | -13%
21 | CCCCCCGCCTCAGTTA (sugars k3 d10 k3, PS) | -7%
22 | CCCTCCCCTTTAATAA (sugars k3 d10 k3, PS) | -17%
23 | AGCTGAGGCTTCCCGG (sugars k3 d10 k3, PS) | 12%

Row | Sequence | target mRNA inhibition
24 | TAAAGTCTGATTAAGG (sugars k3 d10 k3, PS) | 4%
25 | AACATTTGGCCTACTC (sugars k3 d10 k3, PS) | 42%
26 | CACGAACTGCTGCTTG (sugars k3 d10 k3, PS) | 55%
27 | CCGCCTGAGCCCCGGG (sugars k3 d10 k3, PS) | -9%
28 | GACTAAAGGCTTCAGT (sugars k3 d10 k3, PS) | 15%
29 | AACTAAATCATTGGGA (sugars k3 d10 k3, PS) | -1%
30 | TAGTTGTATTAATCTC (sugars k3 d10 k3, PS) | 38%
31 | TGATAACGAAGAGATA (sugars k3 d10 k3, PS) | 15%
32 | ACTCAGCCTTTATCAC (sugars k3 d10 k3, PS) | -5%
33 | GACGGTTGAGAAGTGG (sugars k3 d10 k3, PS) | 25%
34 | CAATCCTGAAATCCCC (sugars k3 d10 k3, PS) | 16%
35 | GTCCCTGAAGGTGTTC (sugars k3 d10 k3, PS) | 23%
36 | GTTAAAAACTTAACGC (sugars k3 d10 k3, PS) | 4%
37 | GGACATCTCTTCCACA (sugars k3 d10 k3, PS) | 24%
38 | AAGCACCGCTTGAGAT (sugars k3 d10 k3, PS) | 8% and 13%
39 | GCGGGATCAGAACAGT (sugars k3 d10 k3, PS) | 40%
40 | GGGAAAAGTGGTTGCC (sugars k3 d10 k3, PS) | 9%
41 | CACTCCCAATTAATCT (sugars k3 d10 k3, PS) | 8%
42 | TTTACCAACCACTCGC (sugars k3 d10 k3, PS) | 18%
43 | ATTAAGAGCTGCTATA (sugars k3 d10 k3, PS) | -4%
44 | GCTGCATCGAGGTGAG (sugars k3 d10 k3, PS) | 24%
45 | CTAAATACCACCACCT (sugars k3 d10 k3, PS) | 12%
46 | TCCAATGGACATCTCT (sugars k3 d10 k3, PS) | 25%

Row | Sequence | target mRNA inhibition
47 | AACAGTACTGCATTTA (sugars k3 d10 k3, PS) | 36%
48 | AGCTGTTTAAGTCACC (sugars k3 d10 k3, PS) | 62% and 57%
49 | TACCACTCCCAATTAA (sugars k3 d10 k3, PS) | 12%
50 | CGTTACGAAAGTCCTT (sugars k3 d10 k3, PS) | 25%
51 | AAAGATATTGTGCTGT (sugars k3 d10 k3, PS) | 11%
52 | ACAAGTTACATGTTCC (sugars k3 d10 k3, PS) | 21%
53 | AATCACCTTCGGTTTA (sugars k3 d10 k3, PS) | -1%
54 | GGCTATTACCTGAAAA (sugars k3 d10 k3, PS) | 6%
55 | CAATCCACTTGATCCC (sugars k3 d10 k3, PS) | 56% and 44%
56 | ATTCGATCACCTTCCG (sugars k3 d10 k3, PS) | 19%
57 | CTTTATCACTCAGCTG (sugars k3 d10 k3, PS) | 37%
58 | TCATACTGCCAGGCTG (sugars k3 d10 k3, PS) | 29%
59 | AGTAGACCAACTAAGC (sugars k3 d10 k3, PS) | 25%
60 | AACCTTCATGACCCTA (sugars k3 d10 k3, PS) | 20%
61 | GCTGGTTATGACTCAG (sugars k3 d10 k3, PS) | 9%
62 | ATAGTTTACCACCTTT (sugars k3 d10 k3, PS) | 39%
63 | ACCTTAGGATAATAGC (sugars k3 d10 k3, PS) | 39%
64 | TAGTTCAACCCACCAA (sugars k3 d10 k3, PS) | -14%
65 | GTCTAGGATCCTCTAC (sugars k3 d10 k3, PS) | 14%
66 | CACACTGGCATGCTGG (sugars k3 d10 k3, PS) | 9%
67 | CCAAACAACTTTTGCA (sugars k3 d10 k3, PS) | 44%
68 | TTGCACTCGCTCCTTC (sugars k3 d10 k3, PS) | 33%
69 | CAGCACATCATGCTAT (sugars k3 d10 k3, PS) | 15%

Row | Sequence | target mRNA inhibition
70 | TTCTTAACAGCTTATG (sugars k3 d10 k3, PS) | 21%
71 | CCAATATTTGCCCCTC (sugars k3 d10 k3, PS) | 40%
72 | GACTCTGGGAAACCTG (sugars k3 d10 k3, PS) | 1%
73 | AGGATGAAATGCCTCT (sugars k3 d10 k3, PS) | 22%
74 | ACGAACTGCTGCTTGC (sugars k3 d10 k3, PS) | 66% and 49% and 50%
75 | TACACTCACTAGAACA (sugars k3 d10 k3, PS) | 3%
76 | ACAGATTAGTAGTCAA (sugars k3 d10 k3, PS) | 9%
77 | TGGTGAATTCAACTGG (sugars k3 d10 k3, PS) | 33%
78 | CCACGCCAACACAGTT (sugars k3 d10 k3, PS) | 31%
79 | TCCGTCATGTTTTAGA (sugars k3 d10 k3, PS) | 50% and 48%
80 | CTGCAGATGCAAGTTA (sugars k3 d10 k3, PS) | 49%
81 | GAAACCGATTATGGAT (sugars k3 d10 k3, PS) | 34%
82 | CTGCCTCAATGCCTAC (sugars k3 d10 k3, PS) | 44%
83 | GAAGTCTCGGGCTGCA (sugars k3 d10 k3, PS) | 6%
84 | ACCAAATTGCACTCGC (sugars k3 d10 k3, PS) | 40%
85 | GAAGAATCCCCCCCAA (sugars k3 d10 k3, PS) | 11%
86 | GCTTTCCCTGTGGCCT (sugars k3 d10 k3, PS) | 10%
87 | CCCACCAAAGACCTCG (sugars k3 d10 k3, PS) | 31%
88 | TCACCAAGGAGCTGTT (sugars k3 d10 k3, PS) | 12%
89 | AGTAGGCCAGACCAAC (sugars k3 d10 k3, PS) | 4%
90 | GGCTGGTTATGACTCA (sugars k3 d10 k3, PS) | 40%
91 | TGGGAATACTCTTCCA (sugars k3 d10 k3, PS) | 11%
92 | ACTCGCATCACCGGAA (sugars k3 d10 k3, PS) | 15%

Row | Sequence | target mRNA inhibition
93 | AGCTACTTAGCTGTGG (sugars k3 d10 k3, PS) | 34%
94 | ACTAAGCTACTATATT (sugars k3 d10 k3, PS) | 39%
95 | AAGACCTCGACACCAT (sugars k3 d10 k3, PS) | 44%
96 | AAGATCGCCTTCAAAT (sugars k3 d10 k3, PS) | 49%
97 | CACTGCAAGGTCTCAT (sugars k3 d10 k3, PS) | 41%
98 | CCAACCACTCGCTTTC (sugars k3 d10 k3, PS) | 26%
99 | AAAAGGCTCGATGGAA (sugars k3 d10 k3, PS) | 11%
100 | CCCCCGCCTCAGTTAC (sugars k3 d10 k3, PS) | 28%
101 | GAGCAGCACGGGCTGT (sugars k3 d10 k3, PS) | 14%
102 | GGCAAATCGCCATGGA (sugars k3 d10 k3, PS) | 22%
103 | ACTCTTGATCTTGAAT (sugars k3 d10 k3, PS) | 43%
104 | AATTAATGCTAGTCCT (sugars k3 d10 k3, PS) | 16%
105 | AATACTTGTCTTAGCT (sugars k3 d10 k3, PS) | 41%
106 | GGTTTCCTCAAGCTCC (sugars k3 d10 k3, PS) | 34%
107 | ATATTGCCGACCTCAC (sugars k3 d10 k3, PS) | 26%
108 | GGACATTGCCTCTTCA (sugars k3 d10 k3, PS) | 54%
109 | ACCCCTGACTTTCTGG (sugars k3 d10 k3, PS) | 18%
110 | CTTTAAATGACGCAAT (sugars k3 d10 k3, PS) | 35%
111 | ATACAAACTGCTTACA (sugars k3 d10 k3, PS) | -30%
112 | CCACTCGCTTTCCCTG (sugars k3 d10 k3, PS) | 41%
113 | CTGCGGTTTCCTCAAG (sugars k3 d10 k3, PS) | 29%
114 | CTTCAGGATCATTAAG (sugars k3 d10 k3, PS) | 3%
